No end group written: not given here.
Key:
[1] = Observation for off-target effects and body weight during 5 weeks of treatment; format: in vivo, mouse; conditions: mice
Experimental: The determination of injection amount of R5 (200 µg/kg) was based on achieving equimolar concentrations as the full length peptide, cAC253[21] and prior studies that used pramlintide injections[22],[23]. The normal mouse circulated endogenous amylin level is 0.7 ± 0.4 pmol/L in plasma[32] and based upon our in vitro data (Fig. 1E) unlikely to perturb the function of peptides in vivo at these concentrations.

[2] = system: 5XFAD mice; test: Brain amyloid pathology and neuroinflammation markers in 5XFAD mice (thioflavin-S, Western blot); format: in vivo, mouse
Excerpt: We initiated treatment of 5XFAD and wild-type control mice at 6 month age at a time point when they had also developed very significant amyloid burden in addition to the spatial memory deficits noted above (Fig. 4A). […] There was significant reduction in the amyloid plaque numbers, and the overall amyloid burden (as judged by the area covered by plaques) in these brain regions in the peptide treated mice (Fig. 5B, p < 0.05). […] (Fig. 5C,D, p < 0.05).
After completion of treatments, the mouse brains were harvested and the right hemisphere was frozen for biochemical analysis (Western blot, ELISA), and the left hemisphere was fixed with PAF for further processed. The thicker brain sections were stained thioflavin-S for detecting Aβ plaques.
After completion of treatments, all mice were sacrificed with an overdose of isoflourane anesthetic, perfused transcardially with saline using a pump, and the brains were harvested. The right hemisphere was frozen for biochemical analysis (Western blot, ELISA), and the left hemisphere was fixed with PAF for 24 h at 4 C. These brain tissues were further processed with modified CLARITY protocol (http://www.chunglabresources.com/clarity/). Briefly, the fixed brain tissue was transferred to hydrogel monomer solution (4% acrylamide in PBS) at 4 C for 24 h, and subsequently to a 24-well plate, merged in fresh hydrogel solution and the tissue brought to 37 C till formation of the gel. Thick sagittal slices (400 μm) were cut on an HR2 Slicer (Sigman Electronic, Germany). The thicker brain sections were cleared with 8% SDS in PBS for 24 h, followed by 0.3% Triton X-100 in PBS for 24 h. Blocking the section in 2%BSA-10% goat serum for 4h. A modified thioflavin-S staining was used for detecting Aβ plaques. […] Images were visualized using fluorescence microscopy (Axioplan-2, Carl Zeiss Ltd). Amyloid plaque size and area were analyzed with Image J software.
Frozen brain tissues or cultured cells were homogenized in cold RIPA buffer with protease inhibitors and proteins were quantified with BCA assay (BioRad, Mississauga, ON, Canada). […]

[3] = In vitro proteolytic stability in human serum; format: in vitro ADME; conditions: 37°C, intact peptide at different time points estimated by RP-HPLC
Experimental: Subsequently, we investigated the proteolytic stability of R5, and R14 compared to AC253. […] By assessing the main degradation fragments for both peptides using MALDI-TOF, we found both peptides to be cleaved at the basic arginine amino acids.
Supplementary Figure S2: The comparison of bio-distribution for the fragments and their parent peptide. (A) Ex vivo fluorescence showing bio-distribution images for Cy5.5-R5, R14, AC253 in different organs at after a 2 h of a single ip injection of the peptides (0.1 mmol in 200µl saline). (B) Quantification of peptides fluorescence in each organ (n=3). (C) In vitro stability of R5, R14, and AC253 peptides in human serum compared with AC253 at 37°C. The amount of intact peptide in human serum at different time points was estimated using RP-HPLC.

[4] = 5 weeks ip, normalized to β-actin, n = 6, p < 0.05

For SQELHRLQTYPR-NH2 [R5], the body weight ([1]; 5 weeks of ip treatment) was “no significant changes in body weight”, the “signs of off-target effects (sedation, gait, feeding or drinking, weight loss, hair loss, grooming)” value ([1]; 5 weeks of ip treatment three times a week) was “None of the mice receiving cAC253 or R5 showed any signs of off-target effects” and the “amyloid proteins (Aβ, 6E10) in cortical tissue, Western blot, versus normal saline” value [2, 4] was “significantly reduced”. The “neuroinflammation markers CD68, NLPR3 and caspase-1, Western blot” value [2, 4] was “significantly attenuated”, the “amyloid pathology in the cortex, hippocampus and thalamus versus saline” value ([2]; ip three times a week for 5 weeks, thioflavin-S) was “significantly reduced amyloid pathology” and the half-life [3] was 1 h.

— publication PMC6662706, “Short amylin receptor antagonist peptides improve memory deficits in Alzheimer’s disease mouse model” (Scientific Reports, 2019)
